Experimental data published in patent US4689326A, “Process for controlling hyperlipidemia” (Research Corporation, priority 1985, dated 1987).
Like-named read-outs stand apart in the source and are kept apart here.

Legend:
serum cholesterol = assay: Testing of Normal Mice: serum cholesterol (modified Liebermann-Burchard), Example 7; format: in vivo, CF1 male mice; conditions: Mus musculus; for response vs control in vivo at 10 mg/kg: 10 mg/kg/day ip; for response vs control in vivo at 40 mg/kg: 40 mg/kg/day ip; for response vs control in vivo at 60 mg/kg: 60 mg/kg/day ip
[1] = system: sn-Glycerol-3-Phosphate Acyl Transferase; assay: In vivo enzyme activity, liver of treated mice: sn-glycerol-3-phosphate acyl transferase; design: species or system CF1 male mice; conditions: 16 days, ± SD
Experimental: (§1) In vitro enzymatic studies were undertaken using 10% homogenates of CF1 male mouse liver with […] of compound 3,4,5,6-dibenzohomopiperidine. In addition, in vivo enzymatic studies were performed, again using 10% liver homogenates (prepared in 0.25 M sucrose plus 0.001 M (ethylenedinitrilo)-tetraacetic acid, ph 7.25 from CF1 male mice obtained after administering 3,4,5,6-dibenzohomopiperidine for 16 days at a concentration ranging from 10 to 60 mg/kg/day, intraperitoneally.
(§2) The following enzyme activities were determined by following standard literature procedures: acetyl coenzyme synthetase; adenosine triphosphate dependent citrate lyase; mitochondrial citrate exchange; cholesterol/7 hydroxylase; 3-hydroxy-3-methyl-glutaryl coenzyme A reductase; acetyl coenzyme A carboxylase activity; fatty acid synthetase activity; sn-glycerol-3-phosphate acyl transferase activity; phosphatidate phosphohydrolase activity; cholesterol acyl transferase; and heparin activated hepatic lypoprotein lipase. Protein was determined for all enzyme assays by the Lowry et al. technique (J. Biol. Chem, 193, 265 (1951)).

serum triglycerides = assay: Testing of Normal Mice: serum triglycerides (BioDynamics kit), Example 7; format: in vivo, CF1 male mice; conditions: Mus musculus, 384 h; 20 mg/kg/day ip, day 16, ± SD
Experimental: Suspensions of Compounds Nos. 1-9 were prepared wherein the compounds were suspended in an aqueous 1% carboxymethylcelluose solution, homogenized and administered to CF1 male mice, each weighing approximately 25 grams, intraperitoneally on a daily basis for 16 days. The dosage was, with the exception of one compound, 20 milligrams of the active compound per kilogram of mouse weight per day. On days 9 and 16 blood was obtained by tail vein bleeding. The blood serum was separated by centrifugation for three minutes. Serum cholesterol levels were determined by a modification of the Liebermann-Burchard reaction. Serum was also collected on day 16 and the triglycerides content was determined by a commercial kit, BioDynamics/bnc Single Vile Colorimetric Method 348201. Each compound was tested on a group of six mice.
In addition to the above-described treated mice, untreated control groups of six mice were similarly tested on days 9 and 14 or 16 to determine their serum cholesterol and triglycerides blood levels. Table 5 reports the percent control, based on the serum cholesterol and serum triglyceride levels of the treated mice compared to the untreated controls. Table 5 also includes the standard deviation indicating the level of confidence of these numbers.
Example 7 was repeated substituting clofibrate, a compound used in the prior art to lower serum cholesterol and serum triglyceride levels. The clofibrate was administered as a suspension in an aqueous 1% solution of carboxymethylcellulose. However, unlike the compounds of the present invention which were administered at a dosage of 20 mg/kg day, ip, this compound was administered at the elevated concentration of 150 mg/kg day, ip.

[2] = system: sn-Glycerol-3-Phosphate Acyl Transferase; assay: In vitro enzyme activity, liver homogenate: sn-glycerol-3-phosphate acyl transferase; format: biochemical, CF1 male mouse; conditions: ± SD, N = 6
Experimental: as §1, §2

Fatty Acid Synthetase = assay: In vivo enzyme activity, liver of treated mice: fatty acid synthetase; design: species or system CF1 male mice; conditions: 16 days, ± SD
Experimental: as §1, §2

[3] = biological target: T1, Cholesterol-7 Hydroxylase (Mus musculus, UniProt Q64505); assay: In vitro enzyme activity, liver homogenate: cholesterol-7 hydroxylase; format: biochemical, CF1 male mouse; conditions: ± SD, N = 6, read-out: Percent Control, in vitro enzyme activity
T1 construct: 10% homogenates of CF1 male mouse liver; from tissue; host or cells: CF1 male mouse liver, 10% homogenate
T1 sequence (Q64505 whole entry): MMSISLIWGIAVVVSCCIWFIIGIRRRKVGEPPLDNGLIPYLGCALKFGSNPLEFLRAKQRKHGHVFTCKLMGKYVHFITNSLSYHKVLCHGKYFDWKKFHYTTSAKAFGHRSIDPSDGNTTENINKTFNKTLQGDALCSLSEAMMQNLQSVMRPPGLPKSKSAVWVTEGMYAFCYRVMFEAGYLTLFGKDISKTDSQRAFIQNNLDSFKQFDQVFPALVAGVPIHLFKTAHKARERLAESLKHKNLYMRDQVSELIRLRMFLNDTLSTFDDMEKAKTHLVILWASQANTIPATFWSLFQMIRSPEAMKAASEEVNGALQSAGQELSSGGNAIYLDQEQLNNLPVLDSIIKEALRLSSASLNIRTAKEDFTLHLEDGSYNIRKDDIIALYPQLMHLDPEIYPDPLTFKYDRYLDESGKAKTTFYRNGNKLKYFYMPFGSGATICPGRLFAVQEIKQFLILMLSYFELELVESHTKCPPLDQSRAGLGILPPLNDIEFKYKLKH
Experimental: as §1, §2

[4] = biological target: T2, ATP Dependent Citrate Lyase (Mus musculus, UniProt Q91V92); assay: In vitro enzyme activity, liver homogenate: ATP dependent citrate lyase; format: biochemical, CF1 male mouse; conditions: ± SD, N = 6, read-out: Percent Control, in vitro enzyme activity
T2 construct: 10% homogenates of CF1 male mouse liver; from tissue; host or cells: CF1 male mouse liver, 10% homogenate
T2 sequence (Q91V92 1-1091): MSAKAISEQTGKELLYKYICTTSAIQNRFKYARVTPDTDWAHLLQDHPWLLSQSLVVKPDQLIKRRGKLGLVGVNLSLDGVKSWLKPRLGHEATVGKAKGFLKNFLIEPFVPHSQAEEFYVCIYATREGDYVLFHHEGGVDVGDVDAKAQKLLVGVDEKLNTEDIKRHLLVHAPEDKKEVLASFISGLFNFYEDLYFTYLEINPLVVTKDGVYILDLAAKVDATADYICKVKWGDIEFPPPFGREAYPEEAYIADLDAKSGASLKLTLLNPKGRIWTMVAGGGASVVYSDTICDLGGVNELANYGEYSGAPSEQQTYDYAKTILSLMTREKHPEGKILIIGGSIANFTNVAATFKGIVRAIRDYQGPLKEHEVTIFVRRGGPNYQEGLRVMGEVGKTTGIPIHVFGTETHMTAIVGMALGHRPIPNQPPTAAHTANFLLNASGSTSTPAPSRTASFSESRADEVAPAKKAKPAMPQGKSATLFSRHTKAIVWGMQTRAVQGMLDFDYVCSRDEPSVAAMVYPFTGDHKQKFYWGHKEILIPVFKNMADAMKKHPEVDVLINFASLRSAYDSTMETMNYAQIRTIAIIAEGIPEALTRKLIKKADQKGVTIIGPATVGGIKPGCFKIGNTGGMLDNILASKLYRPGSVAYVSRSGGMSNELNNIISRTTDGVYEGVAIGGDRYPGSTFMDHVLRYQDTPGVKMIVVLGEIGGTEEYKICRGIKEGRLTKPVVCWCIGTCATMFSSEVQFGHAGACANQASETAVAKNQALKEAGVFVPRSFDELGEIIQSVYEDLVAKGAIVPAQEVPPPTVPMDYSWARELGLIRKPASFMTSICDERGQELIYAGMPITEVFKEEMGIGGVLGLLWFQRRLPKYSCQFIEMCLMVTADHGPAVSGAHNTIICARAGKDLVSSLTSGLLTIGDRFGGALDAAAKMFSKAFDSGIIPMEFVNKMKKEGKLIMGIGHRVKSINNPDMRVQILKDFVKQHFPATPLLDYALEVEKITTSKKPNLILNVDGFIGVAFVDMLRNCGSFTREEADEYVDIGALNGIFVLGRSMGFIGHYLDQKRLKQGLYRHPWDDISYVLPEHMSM
Experimental: as §1, §2

Liver = assay: Lipid Extraction Studies in Rats, Example 11: liver; format: in vivo, Sprague Dawley male rats; conditions: oral 20 mg/kg/day, fourteen days, ± SD
[5] = 216 h, day 9, ± SD, read-out: Serum Cholesterol Control, % Day 9
[6] = 384 h, day 16, ± SD, read-out: Serum Cholesterol Control, % Day 16

c1ccc2c(c1)CNCc1ccccc1-2 [Compound 3, 3,4,5,6-dibenzohomopiperidine]
response vs control in vivo at 10 mg/kg (serum cholesterol; [5]): 61 ± 5% | response vs control in vivo at 40 mg/kg (serum cholesterol; [5]): 67 ± 6% | response vs control in vivo at 60 mg/kg (serum cholesterol; [5]): 69 ± 5% | response vs control in vivo at 10 mg/kg (serum cholesterol; [6]): 50 ± 5% | response vs control in vivo at 40 mg/kg (serum cholesterol; [6]): 54 ± 4% | response vs control in vivo at 60 mg/kg (serum cholesterol; [6]): 51 ± 4% | Percent Control, in vivo enzyme activity ([1]; 10 mg/kg/day ip): 45 ± 7% | Percent Control, in vivo enzyme activity ([1]; 20 mg/kg/day ip): 68 ± 8% | Percent Control, in vivo enzyme activity ([1]; 40 mg/kg/day ip): 62 ± 6% | Percent Control, in vivo enzyme activity ([1]; 60 mg/kg/day ip): 81 ± 6% | response vs control in vivo at 20 mg/kg (serum triglycerides): 49 ± 5% | Percent Control, in vitro enzyme activity ([2]; 50 μM): 35 ± 6% | Percent Control, in vitro enzyme activity ([2]; 100 μM): 34 ± 5% | Percent Control, in vitro enzyme activity ([2]; 200 μM): 51 ± 4% | Percent Control, in vivo enzyme activity (Fatty Acid Synthetase; 10 mg/kg/day ip): 100 ± 8% | Percent Control, in vivo enzyme activity (Fatty Acid Synthetase; 20 mg/kg/day ip): 114 ± 6% | Percent Control, in vivo enzyme activity (Fatty Acid Synthetase; 40 mg/kg/day ip): 106 ± 7% | Percent Control, in vivo enzyme activity (Fatty Acid Synthetase; 60 mg/kg/day ip): 110 ± 8% | remaining activity at 50 µM ([3]; 50 μM): 68 ± 7% | remaining activity at 100 µM ([3]; 100 μM): 72 ± 5% | remaining activity at 200 µM ([3]; 200 μM): 98 ± 7% | remaining activity at 50 µM ([4]; 50 μM): 87 ± 5% | remaining activity at 100 µM ([4]; 100 μM): 38 ± 3% | remaining activity at 200 µM ([4]; 200 μM): 33 ± 4% | Cholesterol, concentration as a function of control (Liver): 65 ± 5% | Mg Lipid Wt, concentration as a function of control (Liver): 89 ± 7% | Neutral Lipids, concentration as a function of control (Liver): 80 ± 5% | Phospholipids, concentration as a function of control (Liver): 98 ± 9% | Protein, concentration as a function of control (Liver): 97 ± 7% | Triglycerides, concentration as a function of control (Liver): 76 ± 6%
